According to patent US9023789B2, “Amylin analogs and pharmaceutical compositions thereof” (Novo Nordisk A/S, priority 2012, dated 2015):
Converted amounts (≈) assume the structure as drawn. Where two headings read alike, the source gives them in different places. Numbered stars: 1 amine (or outer) side, 2 acyl side, 3 side chain; on linkers, the order of the positions; unused ones are H or OH. Bridge positions count the residues as written; N and C are the ends. Side chains are listed from the residue outwards. Peptide text beside a SMILES is read from it. * marks the point of attachment. C20 diacid = O=C(O)CCCCCCCCCCCCCCCCCCC(=O)*; γGlu = O=C(O)[C@H](CCC(=O)[*:2])N[*:1]; AEEA = NCCOCCOCC(=O)O

Legend:
[1] = ASSAY (IV) determination of solubility; type: physicochemical
Outline: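 Polypeptide in water at […] mixed 1:1 with 100 mM buffers of pH 3.0-8.0 (glycylglycine pH 3-5, bistrispropane pH 6-8). Held 18 h at room temperature, then centrifuged; concentration remaining in solution measured by UPLC.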

[2] = biological target: T1, human amylin receptor (membranes from Amylin 3(a)/CRE-luc cells) (Homo sapiens, UniProt O60896+P30988); assay: ASSAY (V) binding to the human amylin receptor (SPA, 125I-rat amylin); conditions: for IC50: Table 4, read-out: hAmylin-R bind IC50;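 for all read-outs here: competition binding of cell membranes (35 ng/µL) mixed with SPA beads in 384-well plates at 40 µL total volume, read by scintillation counting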
T1 construct: expressed in transfected cells
T1 sequence (P30988 25-474): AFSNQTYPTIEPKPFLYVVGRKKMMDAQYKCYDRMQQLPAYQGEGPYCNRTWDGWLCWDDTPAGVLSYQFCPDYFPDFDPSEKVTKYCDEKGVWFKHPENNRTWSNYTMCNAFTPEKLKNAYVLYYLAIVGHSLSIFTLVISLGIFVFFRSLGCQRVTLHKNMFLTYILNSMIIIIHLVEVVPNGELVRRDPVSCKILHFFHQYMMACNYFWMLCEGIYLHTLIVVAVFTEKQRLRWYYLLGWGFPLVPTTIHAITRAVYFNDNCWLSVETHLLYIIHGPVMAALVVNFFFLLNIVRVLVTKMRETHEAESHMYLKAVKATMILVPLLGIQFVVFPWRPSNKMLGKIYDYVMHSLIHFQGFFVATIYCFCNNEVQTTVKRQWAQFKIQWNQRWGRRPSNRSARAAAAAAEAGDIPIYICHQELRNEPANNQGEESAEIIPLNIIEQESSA
T1 sequence (O60896 24-148 partner): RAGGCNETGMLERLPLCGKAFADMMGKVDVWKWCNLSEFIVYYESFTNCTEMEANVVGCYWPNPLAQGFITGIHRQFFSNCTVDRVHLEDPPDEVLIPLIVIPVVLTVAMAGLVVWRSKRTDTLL

rat calcitonin receptor = biological target: T2, rat calcitonin receptor (Rattus norvegicus, UniProt P32214); assay: ASSAY (VIII) binding to the rat calcitonin receptor; conditions: Table 7, read-out: rCTR bind IC50
T2 construct: expressed in transfected cells; host or cells: BHK tk'ts 13 (transient, FuGENE 6), membranes
T2 sequence (P32214 25-479 isoform P32214-2 limits assumed): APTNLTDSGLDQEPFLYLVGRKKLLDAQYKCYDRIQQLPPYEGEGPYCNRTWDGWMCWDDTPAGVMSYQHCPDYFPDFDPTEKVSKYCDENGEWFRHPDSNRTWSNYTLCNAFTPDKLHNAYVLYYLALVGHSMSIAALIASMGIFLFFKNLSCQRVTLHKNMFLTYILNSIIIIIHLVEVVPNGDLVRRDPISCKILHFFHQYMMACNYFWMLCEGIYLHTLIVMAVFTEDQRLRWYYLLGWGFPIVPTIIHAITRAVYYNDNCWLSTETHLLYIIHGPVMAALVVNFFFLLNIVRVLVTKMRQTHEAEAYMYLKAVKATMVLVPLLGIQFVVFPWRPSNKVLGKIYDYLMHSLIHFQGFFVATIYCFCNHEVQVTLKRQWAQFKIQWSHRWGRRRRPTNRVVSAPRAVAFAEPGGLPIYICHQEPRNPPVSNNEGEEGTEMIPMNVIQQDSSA
Outline: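 Membranes were prepared from BHK tk′ts 13 cells transiently transfected with rat calcitonin receptor. Cells were grown in DMEM with 10% FBS and harvested approximately 48 hours after transfection.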

Sprague Dawley (SD) rats = assay: ASSAY (I) efficacy testing on appetite (food intake) using an ad libitum fed rat model; type: in vivo; conditions: rat, 30 nmol/kg
Outline: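 Ad libitum fed SD rats (200–250 g) were housed singly on a reversed light/dark cycle and given one 0.01–3 mg/kg dose ip, po or sc just before lights-off, with 5–8 per dose group plus vehicle controls. Food intake was recorded hourly for 7 h, then at 24 h and sometimes 48 h; Grubbs outliers were excluded.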

[3] = biological target: T3, rat amylin receptor (rat calcitonin receptor + rat RAMP 3) (Rattus norvegicus, UniProt P32214+Q9JJ73); assay: ASSAY (VI) binding to the rat amylin receptor; conditions: for IC50: binding to rat amylin receptor, read-out: rAmylin-R bind IC50
T3 construct: expressed in transfected cells; host or cells: BHK tk'ts 13 (transient, FuGENE 6), membranes
T3 sequence (P32214 25-479 isoform P32214-2 limits assumed): T2 sequence (P32214 25-479 isoform P32214-2 limits assumed)
T3 sequence (Q9JJ73 23-147 partner): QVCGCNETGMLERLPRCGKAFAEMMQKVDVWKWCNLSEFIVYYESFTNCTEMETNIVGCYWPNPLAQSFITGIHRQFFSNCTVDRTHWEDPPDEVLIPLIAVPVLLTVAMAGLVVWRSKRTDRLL
Outline: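 This assay measured binding to the rat amylin receptor. BHK tk′ts 13 cells were transiently transfected with the rat calcitonin receptor using FuGENE® 6 (Roche), following the manufacturer's recommendations. About 48 hours after transfection, the cells were harvested and membranes were prepared from them for the binding determination.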

[4] = bistrispropane buffer, pH 6.5, read-out: Solubility pH 6.5 Concentration
[5] = bistrispropane buffer, pH 7.5, read-out: Solubility pH 7.5 Concentration
[6] = bistrispropane buffer, pH 6.0, read-out: Solubility pH 6.0 Concentration
[7] = bistrispropane buffer, pH 7.0, read-out: Solubility pH 7.0 Concentration
[8] = bistrispropane buffer, pH 8.0, read-out: Solubility pH 8.0 Concentration
[9] = glycylglycine buffer, pH 3.0, read-out: Solubility pH 3.0 Concentration
[10] = glycylglycine buffer, pH 4.0, read-out: Solubility pH 4.0 Concentration
[11] = glycylglycine buffer, pH 5.0, read-out: Solubility pH 5.0 Concentration
[12] = Table 5, selectivity, hCTR bind IC50 / hAmylin-R bind IC50
[13] = Table 5a, selectivity, hCTR bind IC50 / hAmylin-R bind IC50
[14] = Table 5b, selectivity, hCTR bind IC50 / hAmylin-R bind IC50
[15] = Table 7, human binding selectivity, included for comparison
[16] = Table 7a (preferred compounds), human binding selectivity, included for comparison
[17] = ratio of human calcitonin receptor binding IC50 to human amylin receptor binding IC50
[18] = Table 7, rat binding selectivity, rCTR IC50 / rAmylin-R IC50
[19] = Table 7a (preferred compounds), rat binding selectivity, rCTR IC50 / rAmylin-R IC50
[20] = ratio of rCTR bind IC50 to rAmylin-R bind IC50
[21] = Table 5c, selectivity, hCTR bind IC50 / hAmylin-R bind IC50

Row | SMILES | solubility at 18 h [1, 4] | solubility at 18 h [1, 5] | solubility at 18 h [1, 6] | solubility at 18 h [1, 7] | solubility at 18 h [1, 8] | solubility at 18 h [1, 9] | solubility at 18 h [1, 10] | solubility at 18 h [1, 11] | IC50 [2] | Ratio hCT/hAmylin binding [2, 12] | Ratio hCT/hAmylin binding [2, 13] | Ratio hCT/hAmylin binding [2, 14] | Ratio hCT/hAmylin binding [2, 15] | Ratio hCT/hAmylin binding [2, 16] | Ratio hCT/hAmylin binding [2, 17] | IC50 (rat calcitonin receptor) | Food intake reduction 0-24 h 30 nmol/kg (%) (Sprague Dawley (SD) rats) | Food intake reduction 24-48 h 30 nmol/kg (%) (Sprague Dawley (SD) rats) | IC50 ([3]; Table 7) | Ratio rCT/rAmylin binding [3, 18] | further results
1 | CC[C@H](C)[C@H](NC(=O)[C@H](C)NC(=O)CNC(=O)[C@H](Cc1ccccc1)NC(=O)[C@H](CC(N)=O)NC(=O)[C@@H]1CCCN1C(=O)[C@H](CO)NC(=O)[C@H](CO)NC(=O)[C@H](Cc1c[nH]cn1)NC(=O)[C@H](CCCNC(=N)N)NC(=O)[C@H](CC(C)C)NC(=O)[C@H](Cc1ccccc1)NC(=O)[C@H](CCC(=O)O)NC(=O)[C@H](C)NC(=O)[C@H](CC(C)C)NC(=O)[C@H](CCCNC(=N)N)NC(=O)[C@H](CCC(N)=O)NC(=O)[C@@H](NC(=O)[C@H](C)NC(=O)[C@@H]1CSSC[C@H](NC(=O)[C@@H](N)CCCCNC(=O)CC[C@H](NC(=O)CC[C@H](NC(=O)CCCCCCCCCCCCCCCCCCC(=O)O)C(=O)O)C(=O)O)C(=O)N[C@@H](CC(N)=O)C(=O)N[C@@H]([C@@H](C)O)C(=O)N[C@@H](C)C(=O)N[C@@H]([C@@H](C)O)C(=O)N1)[C@@H](C)O)C(=O)N1CCC[C@H]1C(=O)N[C@@H](CO)C(=O)N[C@@H](CO)C(=O)N[C@H](C(=O)N[C@@H](CC(N)=O)C(=O)N[C@H](C(=O)NCC(=O)N1CCC[C@H]1C(=O)N[C@@H](CCC(=O)O)C(=O)N[C@H](C(=O)N[C@@H](Cc1ccc(O)cc1)C(N)=O)[C@@H](C)O)C(C)C)[C@@H](C)O [Example 106] (H-K([γGlu-γGlu-C20 diacid])CNTATCATQRLAEFLRHSSPNFGAIPSSTNVGPETY-NH2; disulfide 2-7; N-terminus assumed) | ≥ 200 µM | ≥ 200 µM | ≥ 200 µM | ≥ 200 µM | ≥ 200 µM | ≥ 200 µM | ≥ 200 µM | ≥ 200 µM | 0.121 nM | 17.6 | 17.6 | 17.6 | 17.6 | 17.6 | 17.6 | 16.1 nM | 63% | 69% | 0.182 nM | 88.5 | Ratio rCT/rAmylin binding [3, 19]: 88.5; Ratio rCT/rAmylin binding [3, 20]: 88.5
2 | CC[C@H](C)[C@H](NC(=O)[C@H](C)NC(=O)CNC(=O)[C@H](Cc1ccccc1)NC(=O)[C@H](CC(N)=O)NC(=O)[C@@H]1CCCN1C(=O)[C@H](CO)NC(=O)[C@H](CO)NC(=O)[C@H](Cc1c[nH]cn1)NC(=O)[C@H](CCCNC(=N)N)NC(=O)[C@H](CC(C)C)NC(=O)[C@H](Cc1ccccc1)NC(=O)[C@H](Cc1c[nH]cn1)NC(=O)[C@H](C)NC(=O)[C@H](CC(C)C)NC(=O)[C@H](CCCNC(=N)N)NC(=O)[C@H](CCC(N)=O)NC(=O)[C@@H](NC(=O)[C@H](C)NC(=O)[C@@H]1CSSC[C@H](NC(=O)[C@@H](N)CCCCNC(=O)CC[C@H](NC(=O)CCCCCCCCCCCCCCCCCCC(=O)O)C(=O)O)C(=O)N[C@@H](CC(N)=O)C(=O)N[C@@H]([C@@H](C)O)C(=O)N[C@@H](C)C(=O)N[C@@H]([C@@H](C)O)C(=O)N1)[C@@H](C)O)C(=O)N1CCC[C@H]1C(=O)N[C@@H](CO)C(=O)N[C@@H](CO)C(=O)N[C@H](C(=O)N[C@@H](CC(N)=O)C(=O)N[C@H](C(=O)NCC(=O)N[C@@H](Cc1c[nH]cn1)C(=O)N[C@@H](CC(N)=O)C(=O)N[C@H](C(=O)N[C@@H](Cc1ccc(O)cc1)C(N)=O)[C@@H](C)O)C(C)C)[C@@H](C)O [Example 81] (H-K([γGlu-C20 diacid])CNTATCATQRLAHFLRHSSPNFGAIPSSTNVGHNTY-NH2; disulfide 2-7; N-terminus assumed) | ≥ 200 µM | ≥ 200 µM | ≥ 200 µM | ≥ 200 µM | ≥ 200 µM | ≥ 200 µM | ≥ 200 µM | ≥ 200 µM | 0.271 nM | 87.2 | 87.2 | 87.2 | 87.2 | 87.2 | 87.2 | 61.1 nM | 40% | 3% | 1.42 nM | 42.9 | Ratio hCT/hAmylin binding [2, 21]: 87.2; Ratio rCT/rAmylin binding [3, 19]: 42.9; Ratio rCT/rAmylin binding [3, 20]: 42.9
3 | CC[C@H](C)[C@H](NC(=O)[C@H](C)NC(=O)CNC(=O)[C@H](Cc1ccccc1)NC(=O)[C@H](CC(N)=O)NC(=O)[C@@H]1CCCN1C(=O)[C@H](CO)NC(=O)[C@H](CO)NC(=O)[C@H](Cc1c[nH]cn1)NC(=O)[C@H](CCCNC(=N)N)NC(=O)[C@H](CC(C)C)NC(=O)[C@H](Cc1ccccc1)NC(=O)[C@H](CC(N)=O)NC(=O)[C@H](C)NC(=O)[C@H](CC(C)C)NC(=O)[C@H](CCCNC(=N)N)NC(=O)[C@H](CCC(N)=O)NC(=O)[C@@H](NC(=O)[C@H](C)NC(=O)[C@@H]1CSSC[C@H](NC(=O)[C@@H](N)CCCCNC(=O)COCCOCCNC(=O)CC[C@H](NC(=O)CCCCCCCCCCCCCCCCCCC(=O)O)C(=O)O)C(=O)N[C@@H](CC(N)=O)C(=O)N[C@@H]([C@@H](C)O)C(=O)N[C@@H](C)C(=O)N[C@@H]([C@@H](C)O)C(=O)N1)[C@@H](C)O)C(=O)N1CCC[C@H]1C(=O)N[C@@H](CO)C(=O)N[C@@H](CO)C(=O)N[C@H](C(=O)N1CCC[C@H]1C(=O)N[C@H](C(=O)NCC(=O)N[C@@H](CO)C(=O)N[C@@H](Cc1c[nH]cn1)C(=O)N[C@H](C(=O)N[C@@H](Cc1ccc(O)cc1)C(N)=O)[C@@H](C)O)C(C)C)[C@@H](C)O [Example 57] (H-K([AEEA-γGlu-C20 diacid])CNTATCATQRLANFLRHSSPNFGAIPSSTPVGSHTY-NH2; disulfide 2-7; N-terminus assumed) | ≥ 200 µM | 142 µM (≈ 644 µg/mL) | ≥ 200 µM | ≥ 200 µM | 101 µM (≈ 458 µg/mL) | ≥ 200 µM | ≥ 200 µM | ≥ 200 µM | 0.115 nM | 133.0 | 133.0 | 133.0 | 133.0 | 133.0 | 133.0 | 24.4 nM | 62% | 16% | 0.181 nM | 134.8 | Ratio hCT/hAmylin binding [2, 21]: 133.0; Ratio rCT/rAmylin binding [3, 19]: 134.8; Ratio rCT/rAmylin binding [3, 20]: 134.8
